Source: ChEMBL document CHEMBL1137511, “Identification of a series of novel derivatives as potent HCV inhibitors by a ligand-based virtual screening optimized procedure” (Bioorg Med Chem, 2007)

Test: Inhibition of HCV genotype 1 polymerase
Set-up: species or system Hepacivirus hominis

IC50 | Structure (SMILES)
35 nM | CC(C)CCn1c(=O)c(C2=NS(=O)(=O)c3cc(NS(=O)(=O)NC(=O)OCCC#N)ccc3N2)c(O)c2cccnc21
132 nM | CCOC(=O)c1cccc(NS(=O)(=O)Nc2ccc3c(c2)S(=O)(=O)N=C(c2c(O)c4cccnc4n(CCC(C)C)c2=O)N3)c1
934 nM | CC(C)CCn1c(=O)c(C2=NS(=O)(=O)c3cc(OCC(=O)N(C)C)ccc3N2)c(O)c2cccnc21
5000 nM | CC(C)CCn1c(=O)c(C2=NS(=O)(=O)c3cc(OCC(=O)OC(C)(C)C)ccc3N2)c(O)c2cccnc21
27 nM | CC(C)CCn1c(=O)c(C2=NS(=O)(=O)c3cc(NS(=O)(=O)N4CCCC4)ccc3N2)c(O)c2cccnc21
1620 nM | CCCOc1ccc2c(c1)S(=O)(=O)NC(c1c(O)c3cccnc3n(CCC(C)C)c1=O)=N2
17600 nM | COc1cccc2c1NC(c1c(O)c3cccnc3n(CCC(C)C)c1=O)=NS2(=O)=O
88 nM | C=CCOC(=O)NS(=O)(=O)Nc1ccc2c(c1)S(=O)(=O)N=C(c1c(O)c3cccnc3n(CCC(C)C)c1=O)N2
15 nM | COc1cccc(CNS(=O)(=O)Nc2ccc3c(c2)S(=O)(=O)N=C(c2c(O)c4cccnc4n(CCC(C)C)c2=O)N3)c1
72 nM | C#CCOC(=O)NS(=O)(=O)Nc1ccc2c(c1)S(=O)(=O)N=C(c1c(O)c3cccnc3n(CCC(C)C)c1=O)N2
21 nM | CC(C)CCn1c(=O)c(C2=NS(=O)(=O)c3cc(NS(=O)(=O)NC(=O)OCCN)ccc3N2)c(O)c2cccnc21
906 nM | CC(C)CCn1c(=O)c(C2=NS(=O)(=O)c3cc(NC(=O)C(F)(F)F)ccc3N2)c(O)c2cccnc21
8 nM | CC(C)CCn1c(=O)c(C2=NS(=O)(=O)c3cc(NS(=O)(=O)C(C)C)ccc3N2)c(O)c2cccnc21
121 nM | CC(C)CCn1c(=O)c(C2=NS(=O)(=O)c3cc(NS(=O)(=O)N(C)C(=O)OCc4ccccc4)ccc3N2)c(O)c2cccnc21
810 nM | CC(C)CCn1c(=O)c(C2=NS(=O)(=O)c3ccccc3N2)c(O)c2cccnc21
129 nM | COC(=O)c1ccccc1NS(=O)(=O)Nc1ccc2c(c1)S(=O)(=O)N=C(c1c(O)c3cccnc3n(CCC(C)C)c1=O)N2
9 nM | CC(C)CCn1c(=O)c(C2=NS(=O)(=O)c3cc(NS(N)(=O)=O)ccc3N2)c(O)c2cccnc21
390 nM | CC(C)CCn1c(=O)c(C2=NS(=O)(=O)c3cc(O)ccc3N2)c(O)c2cccnc21
10 nM | CC(C)CCn1c(=O)c(C2=NS(=O)(=O)c3cc(NS(=O)(=O)NCCN)ccc3N2)c(O)c2cccnc21
63 nM | COC(=O)NS(=O)(=O)Nc1ccc2c(c1)S(=O)(=O)N=C(c1c(O)c3cccnc3n(CCC(C)C)c1=O)N2

IC50 | Structure (SMILES)
41 nM | CC(C)CCn1c(=O)c(C2=NS(=O)(=O)c3cc(NS(=O)(=O)c4ccccc4)ccc3N2)c(O)c2cccnc21
10 nM | COc1ccc(CNS(=O)(=O)Nc2ccc3c(c2)S(=O)(=O)N=C(c2c(O)c4cccnc4n(CCC(C)C)c2=O)N3)cc1
180 nM | CNC(=O)COc1ccc2c(c1)S(=O)(=O)NC(c1c(O)c3cccnc3n(CCC(C)C)c1=O)=N2
58 nM | CC(C)CCn1c(=O)c(C2=NS(=O)(=O)c3cc(NS(=O)(=O)NC(=O)OCc4ccccc4)ccc3N2)c(O)c2cccnc21
57 nM | COc1ccccc1CNS(=O)(=O)Nc1ccc2c(c1)S(=O)(=O)N=C(c1c(O)c3cccnc3n(CCC(C)C)c1=O)N2
46 nM | CC(C)CCn1c(=O)c(C2=NS(=O)(=O)c3cc(OCC(N)=O)ccc3N2)c(O)c2cccnc21
189 nM | CC(C)CCn1c(=O)c(C2=NS(=O)(=O)c3cc(NS(=O)(=O)NC(=O)OCCCl)ccc3N2)c(O)c2cccnc21
141 nM | CC(C)CCn1c(=O)c(C2=NS(=O)(=O)c3cc(OCC#N)ccc3N2)c(O)c2cccnc21
24 nM | CC(C)CCn1c(=O)c(C2=NS(=O)(=O)c3cc(NS(=O)(=O)N4CCC4)ccc3N2)c(O)c2cccnc21
120 nM | CC(C)CCn1c(=O)c(C2=NS(=O)(=O)c3cc(NCC#N)ccc3N2)c(O)c2cccnc21
50 nM | CC(C)CCn1c(=O)c(C2=NS(=O)(=O)c3cc(NS(=O)(=O)NC(=O)OCC(=O)O)ccc3N2)c(O)c2cccnc21
1130 nM | COc1ccc2c(c1)S(=O)(=O)N=C(c1c(O)c3cccnc3n(CCC(C)C)c1=O)N2
470 nM | CC(C)CCn1c(=O)c(C2=NS(=O)(=O)c3cc(NCC(N)=O)ccc3N2)c(O)c2cccnc21
48 nM | COC(=O)c1ccc(NS(=O)(=O)Nc2ccc3c(c2)S(=O)(=O)N=C(c2c(O)c4cccnc4n(CCC(C)C)c2=O)N3)cc1
637000 nM | CC(C)CCn1c(=O)c(C2=NS(=O)(=O)c3cc(OCCN)ccc3N2)c(O)c2cccnc21
51 nM | CC(C)CCn1c(=O)c(C2=NS(=O)(=O)c3cc(NS(=O)(=O)N4CCCCC4)ccc3N2)c(O)c2cccnc21
39 nM | CC(C)CCn1c(=O)c(C2=NS(=O)(=O)c3cc(NS(=O)(=O)NC4CCCC4)ccc3N2)c(O)c2cccnc21
310 nM | CC(C)CCn1c(=O)c(C2=NS(=O)(=O)c3cc(N)ccc3N2)c(O)c2cccnc21
107 nM | CC(C)CCn1c(=O)c(C2=NS(=O)(=O)c3cc(NS(=O)(=O)NCCO)ccc3N2)c(O)c2cccnc21

Continued, compound first:

Structure (SMILES) | IC50
CC(C)CCn1c(=O)c(C2=NS(=O)(=O)c3cc(NS(=O)(=O)Nc4cccc(C(=O)NCC(N)=O)c4)ccc3N2)c(O)c2cccnc21 | 43 nM
O=c1c(C2=NS(=O)(=O)c3ccccc3N2)c(O)c2ccccc2n1NCC1CCCCC1 | 2530 nM
CCCCCNn1c(=O)c(C2=NS(=O)(=O)c3ccccc3N2)c(O)c2ccccc21 | 928 nM
O=c1c(C2=NS(=O)(=O)c3ccccc3N2)c(O)c2ccccc2n1NCc1ccccc1 | 5090 nM
O=c1c(C2=NS(=O)(=O)c3ccccc3N2)c(O)c2ccccc2n1NCC1CCCCCC1 | 1040 nM
CCCC(Nn1c(=O)c(C2=NS(=O)(=O)c3ccccc3N2)c(O)c2ccccc21)C(C)C (centres undefined) | 6400 nM
O=c1c(C2=NS(=O)(=O)c3ccccc3N2)c(O)c2ccccc2n1NCc1ccc(Cl)s1 | 4780 nM
O=c1c(C2=NS(=O)(=O)c3ccccc3N2)c(O)c2ccccc2n1NCc1ccco1 | 3260 nM
O=c1c(C2=NS(=O)(=O)c3ccccc3N2)c(O)c2ccccc2n1NCc1cccc(Br)c1 | 1040 nM
CC(C)CCn1c(=O)c(C2=NS(=O)(=O)c3cc(NS(C)(=O)=O)ccc3N2)c(O)c2cccnc21 | 2 nM
O=c1c(C2=NS(=O)(=O)c3ccccc3N2)c(O)c2ccccc2n1NCC1CCCC1 | 747 nM
O=c1c(C2=NS(=O)(=O)c3ccccc3N2)c(O)c2ccccc2n1NCc1ccc(Br)cc1 | 10400 nM
CC(C)CCNn1c(=O)c(C2=NS(=O)(=O)c3ccccc3N2)c(O)c2ccccc21 | 629 nM
CC(Nn1c(=O)c(C2=NS(=O)(=O)c3ccccc3N2)c(O)c2ccccc21)c1ccccc1 (centres undefined) | 16500 nM
Cc1ccc2c(c1)S(=O)(=O)NC(c1c(O)c3cccnc3n(Cc3ccccc3)c1=O)=N2 | 25700 nM
CNC(=O)c1ccc(NS(=O)(=O)Nc2ccc3c(c2)S(=O)(=O)N=C(c2c(O)c4cccnc4n(CCC(C)C)c2=O)N3)cc1 | 43 nM
CC(C)CCn1c(=O)c(C2=NS(=O)(=O)c3cc(NS(=O)(=O)NC(=O)OCCOCc4ccccc4)ccc3N2)c(O)c2cccnc21 | 96 nM
O=c1c(C2=NS(=O)(=O)c3ccccc3N2)c(O)c2ccccc2n1NC1CCCCC1 | 356 nM
CNS(=O)(=O)Nc1ccc2c(c1)S(=O)(=O)NC(c1c(O)c3cccnc3n(CCC(C)C)c1=O)=N2 | 14 nM
COc1cccc2c1NC(c1c(O)c3cccnc3n(Cc3ccccc3)c1=O)=NS2(=O)=O | 18000 nM
O=c1c(C2=NS(=O)(=O)c3ccccc3N2)c(O)c2cccnc2n1Cc1ccccc1 | 5800 nM
CC(C)CCn1c(=O)c(C2=NS(=O)(=O)c3cc(NS(=O)(=O)NCc4ccccc4)ccc3N2)c(O)c2cccnc21 | 5.5 nM
CC(C)Nn1c(=O)c(C2=NS(=O)(=O)c3ccccc3N2)c(O)c2ccccc21 | 6350 nM

Structure (SMILES) | IC50
O=c1c(C2=NS(=O)(=O)c3ccccc3N2)c(O)c2ccccc2n1NCC1=CCOC=C1 | 4630 nM
CC(C)CCn1c(=O)c(C2=NS(=O)(=O)c3cc(NS(=O)(=O)NC4CCNCC4)ccc3N2)c(O)c2cccnc21 | 32 nM
CC(C)CCn1c(=O)c(C2=NS(=O)(=O)c3cc(NS(=O)(=O)Nc4ccccc4)ccc3N2)c(O)c2cccnc21 | 41 nM
CCCCS(=O)(=O)Nc1ccc2c(c1)S(=O)(=O)NC(c1c(O)c3cccnc3n(CCC(C)C)c1=O)=N2 | 22 nM
CC(C)CCn1c(=O)c(C2=NS(=O)(=O)c3cc(NS(=O)(=O)Nc4cccc(C(=O)O)c4)ccc3N2)c(O)c2cccnc21 | 115 nM
Cc1cccc(CNn2c(=O)c(C3=NS(=O)(=O)c4ccccc4N3)c(O)c3ccccc32)c1 | 8210 nM
O=c1c(C2=NS(=O)(=O)c3ccccc3N2)c(O)c2ccccc2n1NCc1cccs1 | 2330 nM
NS(=O)(=O)Nc1ccc2c(c1)S(=O)(=O)N=C(c1c(O)c3cccnc3n(NC3CCC3)c1=O)N2 | 5.2 nM
O=c1c(C2=NS(=O)(=O)c3ccccc3N2)c(O)c2ccccc2n1NCc1ccoc1 | 1550 nM
CC(C)CCn1c(=O)c(C2=NS(=O)(=O)c3cc(NS(=O)(=O)NCCc4ccccc4)ccc3N2)c(O)c2cccnc21 | 18 nM
CC(C)CCn1c(=O)c(C2=NS(=O)(=O)c3cc(NS(=O)(=O)Nc4ccc(C(N)=O)cc4)ccc3N2)c(O)c2cccnc21 | 18 nM
O=c1c(C2=NS(=O)(=O)c3cccc(Br)c3N2)c(O)c2cccnc2n1Cc1ccccc1 | 6200 nM
O=c1c(C2=NS(=O)(=O)c3cc(Br)ccc3N2)c(O)c2cccnc2n1Cc1ccccc1 | 16800 nM
CC(C)CNn1c(=O)c(C2=NS(=O)(=O)c3ccccc3N2)c(O)c2ccccc21 | 941 nM
CCCC(CCC)Nn1c(=O)c(C2=NS(=O)(=O)c3ccccc3N2)c(O)c2ccccc21 | 2240 nM
COCCOC(=O)NS(=O)(=O)Nc1ccc2c(c1)S(=O)(=O)NC(c1c(O)c3cccnc3n(CCC(C)C)c1=O)=N2 | 87 nM
O=c1c(C2=NS(=O)(=O)c3ccccc3N2)c(O)c2ccccc2n1NCC1CC1 | 285 nM
COc1ccc2c(c1)S(=O)(=O)NC(c1c(O)c3cccnc3n(Cc3ccccc3)c1=O)=N2 | 8310 nM
CNS(=O)(=O)Nc1ccc2c(c1)S(=O)(=O)N=C(c1c(O)c3cccnc3n(NC3CCC3)c1=O)N2 | 87000 nM
CCC(CC)Nn1c(=O)c(C2=NS(=O)(=O)c3ccccc3N2)c(O)c2ccccc21 | 2460 nM
O=c1c(C2=NS(=O)(=O)c3ccccc3N2)c(O)c2ccccc2n1NCC1CCC1 | 278 nM
Cc1cccc2c1N=C(c1c(O)c3cccnc3n(Cc3ccccc3)c1=O)NS2(=O)=O | 6700 nM
